The target of one experiment is T1, human EDG-1 (Homo sapiens, UniProt P21453).
T1 construct: c-myc (N); expressed in transfected cells
The experiment in a line: EDG-1 (S1P1) GTP [γ-35S] binding assay. It counts as biochemical. As to conditions: GTP [γ-35S] binding to membranes from CHO cells expressing human EDG-1. The method, then: (§1) A. In Vitro: GPCR Activation Assay Measuring GTP [γ-^35S] Binding to Membranes Prepared from CHO Cells Expressing Human EDG Receptors
EDG-1 (S1P1) GTP [γ-^35S] binding assay: Homogenized membranes are prepared from CHO cell clones stably expressing a human EDG-1 N-terminal c-myc tag. Cells are grown in suspension in two 850 cm^2 roller bottles for three or fours days before harvesting. The cells are centrifuged down, washed once with cold PBS, and resuspended in ≦20 ml of Buffer A (20 mM HEPES, pH 7.4, 10 mM EDTA, EDTA-free complete protease inhibitor cocktail [1 tablet/25 ml]). The cell suspension is homogenized on ice, using a Polytron homogenizer at 30000 rpm at three intervals of 15 seconds each. The homogenate is first centrifuged at 2000 rpm on a tabletop low speed centrifuge for 10 minutes. The supernatant, after passing through a cell strainer, is then re-centrifuged at 50,000×g for 25 minutes at 4° C. The pellet is resuspended into buffer B (15% glycerol, 20 mM HEPES, pH 7.4, 0.1 mM EDTA, EDTA-free complete protease inhibitor cocktail [1 tablet/10 ml]). Protein concentration of the prep is determined using the BCA Protein Assay kit (Pierce) using BSA as standard. The membranes are aliquoted and kept frozen at −80° C.
Solutions of test compounds ranging from 10 mM to 0.01 nM are prepared in DMSO. S1P is diluted in 4% BSA solution as positive controls. […]

The subject of another experiment is blood lymphocytes. The experiment in a line: Measurement of circulating lymphocytes (blood lymphocyte depletion). It counts as in vivo, Mice (C57b1/6 male). As to conditions: Mus musculus, po, mice, orally by gavage, blood collected 6 and 24 hours after administration, read-out: ED50, effective dose required displaying 50% of blood lymphocyte depletion. The method, then: Measurement of circulating lymphocytes: Compounds are dissolved in DMSO and diluted to obtain a final concentration of 4% DMSO (v/v, final concentration) and then further diluted in a constant volume of Tween80 25%/H2O, v/v. Tween80 25%/H2O (200 μl), 4% DMSO, and FTY720 (10 μg) are included as negative and positive controls, respectively. Mice (C57b1/6 male, 6-10 week-old) are administered 250-300 μL of compound solution orally by gavages under short isoflurane anesthesia.
Blood is collected from the retro-orbital sinus 6 and 24 hours after drug administration under short isoflurane anesthesia. Whole blood samples are subjected to hematology analysis. Peripheral lymphocyte counts are determined using an automated analyzer. Subpopulations of peripheral blood lymphocytes are stained by fluorochrome-conjugated specific antibodies and analyzed using a fluorescent activating cell sorter (Facscalibur). Two mice are used to assess the lymphocyte depletion activity of each compound screened. The result is an ED50, which is defined as the effective dose required displaying 50% of blood lymphocyte depletion.

The test system of experiment [1] is EDG-3, EDG-5, EDG-6 and EDG-8. The experiment can be described thus: EDG-3, -5, -6 and -8 GTP [γ-35S] binding assays (selectivity versus EDG-1). It counts as biochemical, human. The method, then:
as §1
Solutions of test compounds ranging from 10 mM to 0.01 nM are prepared in DMSO. S1P is diluted in 4% BSA solution as positive controls. The desired amount of membrane prep is diluted with ice-cold assay buffer (20 mM HEPES, pH 7.4, 100 mM NaCl, 10 mM MgCl2, 0.1% Fatty acid-free BSA, 5 μM GDP) and vortexed well. 2 μl or less of compound is distributed into each well of a round-bottom 96-well polystyrene assay plate, followed by addition of 100 μl of diluted membranes (3-10 μg/well) and kept on ice until the addition of hot GTPγS. [^35S]-GTPγS is diluted 1:1000 (v/v) with cold assay buffer and 100 μl is added into each well. The reaction is carried out at room temperature for 90 minutes before the membranes are harvested onto Perkin-Elmer Unifilter® GF/B-96 filter plate using a Packard Filtermate Harvester. After several washes with wash buffer (20 mM HEPES, pH 7.4, 100 mM NaCl, 10 mM MgCl2), and a rinse with 95% ethanol, the filter is dried in a 37° C. oven for 30 minutes. MicroScint-20 is added and the plate sealed for scintillation counting on TopCount. EC50 values are obtained by fitting the GTP [γ-^35S] binding curves (raw data) with the dose response curve-fitting tool of GraphPad Prism. […]

A word on the EC50: it is the concentration giving half of the maximal effect. Low values mean a more potent agent, high ones a less potent agent. As usually defined, the ED50 is the dose that gives a 50% effect, or the effect in half of the subjects.

T1 sequence (P21453 whole entry): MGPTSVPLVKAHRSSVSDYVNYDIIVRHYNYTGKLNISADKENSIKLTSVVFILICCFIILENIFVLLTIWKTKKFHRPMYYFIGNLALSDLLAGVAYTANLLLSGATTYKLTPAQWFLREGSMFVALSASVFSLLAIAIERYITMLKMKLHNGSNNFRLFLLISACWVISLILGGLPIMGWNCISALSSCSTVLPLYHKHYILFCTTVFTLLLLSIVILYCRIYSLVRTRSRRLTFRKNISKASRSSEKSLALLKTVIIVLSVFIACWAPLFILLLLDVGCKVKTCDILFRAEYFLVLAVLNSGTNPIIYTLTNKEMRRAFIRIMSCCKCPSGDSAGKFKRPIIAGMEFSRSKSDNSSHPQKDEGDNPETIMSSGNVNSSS

At human EDG-1, `O=C(O)CCNCc1ccc2sc(-c3ccc(-c4ccccc4)c(C(F)(F)F)c3)cc2c1` [Example 1, 3-{[2-(2-Trifluoromethyl-biphenyl-4-yl)-benzo[b]thiophen-5-ylmethyl]-amino}-propionic acid] registered an EC50 of 0.6 nM. The ED50 in the experiment on blood lymphocytes turned out to be 0.2 mg/kg. Moreover, the “selective for EDG-1 compared to one or more of the other receptors including EDG-3, EDG-5, EDG-6 and EDG-8” value in experiment [1] was “at least 1000 fold”.

The values are drawn from patent US7750021B2, “Immunosuppressant compounds and compositions” (IRM LLC, priority 2003, dated 2010).
